15 molecules from PubChem BioAssay (NCI) can be followed below.

SMILES strings stand for the structures.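 The compound was tested at five concentrations on cells cultured in 96-well plates, with a 48-hour exposure period. At the GI50, growth is halved. TGI denotes the concentration required for complete inhibition of growth.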

Test in all cases: NCI anticancer screen, dose series, 48 h
In assay [1] the test system is CAKI-1 renal.
In assay [2] the test system is DLD-1 colon.
Assay [3] deals with DMS 114 small cell lung.
Assay [4] concerns HCT-116 colon.
For assay [5], the system named is NCI-H226 lung.
In assay [6] the test system is DU-145 prostate.
Assay [7] has as its system NCI/ADR-RES ovarian.
Assay [8] concerns PC-3 prostate.
Assay [9] concerns T-47D breast.
The test system of assay [10] is HS 578T breast.

Take `C=C(C(=O)C(=O)Oc1ccc(Cl)cc1)C(=O)c1ccc(C)cc1`: the TGI in assay [1] is more than 100 µM; in assay [2], 99.3 µM; in [3] it was more than 100 µM; in assay [4] it was 30.3 µM; in assay [5], more than 100 µM.
Take `C/C(CCOC1CCCCO1)=C(\C)[Si](C)(C)C` (stereo unspecified): the TGI in assay [2], in assay [3] and in assay [4] was more than 100 µM each time.
Take `CCOC(=O)c1csc(NC(=O)CCN(CC)CC)n1`: the TGI was 42.8 µM in [1]; more than 100 µM in assay [6]; 89 µM in assay [5]; more than 100 µM in assay [7]; more than 100 µM in assay [8]; more than 100 µM in assay [9].
On to `O=C1C(Cl)=C(N2CCN(C3=C(Cl)C(=O)c4ccccc4C3=O)CC2)C(=O)c2ccccc21`, for which the TGI in assay [1] was determined as 3.48 µM; in [2] it was 0.937 µM; in assay [3], 2.64 µM; in assay [6], 14.4 µM; in assay [4], 2.76 µM; in assay [10] it was 7.12 µM. Besides, the TGI in assay [5] was 11.8 µM; in [7], 3.51 µM; in assay [8], 20.3 µM; in assay [9], 2.06 µM.
Turning to `Oc1ccc(/C=C/c2cc(O)cc(O)c2)cc1`, the TGI is more than 100 µM in [1]; 85.3 µM in assay [6]; more than 100 µM in assay [5]; more than 100 µM in assay [7]; more than 100 µM in [8]; more than 100 µM in assay [9].
As to `COC(=O)C1C(C(=O)OC)N(Cc2ccccc2)C(=O)N1Cc1ccccc1` (stereo unspecified), the TGI in assay [1], in assay [6], in assay [4], in [10], in assay [5] and in assay [7] was more than 100 µM each time. For the same molecule, the TGI in assay [8] and in [9] was more than 100 µM each time.
In the case of `C[C@]12CC[C@@H]3c4ccc(O)cc4CC[C@H]3[C@@H]1C/C(=C\c1ccncc1)C2=O`, the TGI in [1] is more than 100 µM; in [6] it was 91.6 µM; in [10], 62.7 µM; in [5] it was 68.6 µM; in assay [7], 60.1 µM; in assay [8] it was more than 100 µM. In assay [9], this molecule had a TGI of more than 100 µM.
`CCCc1cc(=O)c2c(C)c3[nH]c4ccc(Cl)cc4c3c(C)c2[nH]1`: the TGI in assay [1] was 4.37 µM; in assay [6] it was 18.9 µM; in assay [4], 3.09 µM; in [10], 32.7 µM; in assay [5], 12.8 µM; in [7], 10.2 µM. Moreover, the TGI in assay [8] amounted to 14.7 µM; in assay [9], 3.88 µM.
On to `N.N.N.O=[N+]([O-])[O-].O=[N+]([O-])[O-].O=[N+]([O-])[O-].O=[N+]([O-])[O-].[Co+3]`, for which, in assay [2], the GI50 is more than 100 µM and the TGI was more than 100 µM. The molecule further registered a TGI in [4] of more than 100 µM.
For `COc1ccc2[nH]c(O)c(/C=c3/cc4c(c(-c5cc(OC)c(OC)c(OC)c5)n3)=Nc3ccccc3-4)c2c1`, the GI50 is more than 100 µM in assay [1]; 88.2 µM in assay [6]; 3.49 µM in assay [4]; 9.81 µM in [10]; more than 100 µM in [5]; 3.3 µM in assay [7]. Moreover, the GI50 in assay [8] is 5.47 µM; in assay [9] it was 28.5 µM. In addition, the TGI in [1] is more than 100 µM; in assay [6], more than 100 µM; in assay [4], 64.7 µM; in assay [10], more than 100 µM; in assay [5], more than 100 µM; in assay [7] it was more than 100 µM. The TGI in assay [8] and in assay [9] was more than 100 µM each time.
Regarding `C#CCCCCC#Cc1ccccc1C(=O)OC`, the TGI is more than 100 µM in [2], 60 µM in assay [3], 23 µM in assay [4] and more than 100 µM in [5].
Regarding `NC(N)=NS(=O)(=O)c1ccc(NCc2c3ccccc3[n+]([O-])c3ccccc23)cc1`, the TGI was more than 100 µM in assay [1]; more than 100 µM in assay [2]; 56.6 µM in [3]; 31.9 µM in [4]; 72.8 µM in assay [5].
As for `CC(C)OP(=O)(OC(C)C)c1c(Nc2ccccc2)n[nH]c1N`, the TGI in [1], in [6], in assay [10], in assay [5], in assay [7] and in assay [8] was more than 100 µM throughout. The molecule also came in with a TGI in assay [9] of more than 100 µM.
Regarding `O=C(O)CC/C(=N\Nc1nsc2ccccc12)c1ccccc1`, the values for the TGI in assay [3] and in assay [4] were 82 µM and more than 100 µM, respectively.
In the case of `CCN1c2ccccc2-n2c(C)nnc2-c2c1n[nH]c2-c1ccccc1`, the TGI was more than 100 µM in [6]; more than 100 µM in assay [4]; more than 100 µM in assay [10]; 73.1 µM in [7]; 96.5 µM in assay [8]; 74.7 µM in assay [9].
